Measured values published in ChEMBL document CHEMBL3044771, “Synthesis, characterization, and in vitro anti-Mycobacterium tuberculosis activity of terpene Schiff bases” (2013).
Converted amounts (≈) assume the structure as drawn.

What was measured:
Assay type in all cases: functional
Mycobacterium xenopi = test: Antitubercular activity against Mycobacterium xenopi ATCC 14470 assessed as growth inhibition after 48 hr by NCCLS agar dilution method; conditions: ATCC 14470, 48 h
[1] = tested on: Mycobacterium intracellulare; test: Antitubercular activity against Mycobacterium intracellulare ATCC 35743 assessed as growth inhibition after 48 hr by NCCLS agar dilution method; conditions: ATCC 35743, 48 h
[2] = tested on: Mycolicibacterium smegmatis; test: Antitubercular activity against Mycobacterium smegmatis ATCC 35797 assessed as growth inhibition after 48 hr by NCCLS agar dilution method; conditions: ATCC 35797, 48 h
Mycobacteroides chelonae = test: Antitubercular activity against Mycobacterium chelonae ATCC 35751 assessed as growth inhibition after 48 hr by NCCLS agar dilution method; conditions: ATCC 35751, 48 h

For `Cc1cccc(Nc2ccccc2C(=O)N/N=C2\CC3CCC2(C)C3(C)C)c1C` (stereo not drawn), the MIC (Mycobacterium xenopi) was greater than 100 mg/L, the MIC [1] was greater than 100 mg/L and the MIC [2] was greater than 100 mg/L. The MIC (Mycobacteroides chelonae) was greater than 100 mg/L.

Work on `CCn1cc(C(=O)N/N=C\C=C(/C)CCC=C(C)C)c(=O)c2ccc(C)nc21` yielded an MIC (Mycobacterium xenopi) greater than 100 mg/L, an MIC [1] greater than 100 mg/L and an MIC [2] greater than 100 mg/L. It also gave an MIC (Mycobacteroides chelonae) greater than 100 mg/L.

In the case of `NNC(=O)c1ccncc1` [ISONIAZID], the MIC (Mycobacterium xenopi) is reported as 12.5 mg/L (≈ 91.1 µM), the MIC [1] is reported as 12.5 mg/L (≈ 91.1 µM) and the MIC [2] is reported as 12.5 mg/L (≈ 91.1 µM). It also gave an MIC (Mycobacteroides chelonae) of 12.5 mg/L (≈ 91.1 µM).

`CC(C)=CCC/C(C)=C/C=N/NC(=O)c1ccncc1` showed an MIC (Mycobacterium xenopi) greater than 100 mg/L, an MIC [1] greater than 100 mg/L and an MIC [2] greater than 100 mg/L. The MIC (Mycobacteroides chelonae) was greater than 100 mg/L.

In the case of `C=C(C)C1CC=C(C)/C(=N/NC(=O)c2ccncc2)C1` (stereo not drawn), the MIC (Mycobacterium xenopi) is reported as 12 mg/L (≈ 44.6 µM), the MIC [1] is reported as 12 mg/L (≈ 44.6 µM) and the MIC [2] is reported as 12 mg/L (≈ 44.6 µM). For the same molecule, the MIC (Mycobacteroides chelonae) was 12 mg/L (≈ 44.6 µM).

Molecule `CC12CCC(C/C1=N\NC(=O)c1ccccc1Nc1cccc(C(F)(F)F)c1)C2(C)C` (stereo not drawn) has an MIC (Mycobacterium xenopi) greater than 100 mg/L, an MIC [1] greater than 100 mg/L and an MIC [2] greater than 100 mg/L. The MIC (Mycobacteroides chelonae) was greater than 100 mg/L.

Work on `CC(C)=CCC/C(C)=C\C=N/NC(=O)c1ccccc1Nc1cccc(C)c1C` yielded an MIC (Mycobacterium xenopi) greater than 100 mg/L, an MIC [1] greater than 100 mg/L and an MIC [2] greater than 100 mg/L. It also gave an MIC (Mycobacteroides chelonae) greater than 100 mg/L.

With `CCn1cc(C(=O)N/N=C2\CC3CCC2(C)C3(C)C)c(=O)c2ccc(C)nc21` (stereo not drawn) the MIC (Mycobacterium xenopi) was 50 mg/L (≈ 131 µM), the MIC [1] was 50 mg/L (≈ 131 µM) and the MIC [2] was 50 mg/L (≈ 131 µM). The MIC (Mycobacteroides chelonae) was 50 mg/L (≈ 131 µM).

`CC12CCC(C/C1=N/NC(=O)c1ccncc1)C2(C)C` (stereo not drawn) showed an MIC (Mycobacterium xenopi) of 50 mg/L (≈ 184 µM), an MIC [1] of 50 mg/L (≈ 184 µM) and an MIC [2] of 50 mg/L (≈ 184 µM). It also gave an MIC (Mycobacteroides chelonae) of 50 mg/L (≈ 184 µM).

`C=C(C)C1CC=C(C)/C(=N/NC(=O)c2ccccc2Nc2cccc(C)c2C)C1` (stereo not drawn) showed an MIC (Mycobacterium xenopi) greater than 100 mg/L, an MIC [1] greater than 100 mg/L and an MIC [2] greater than 100 mg/L. The MIC (Mycobacteroides chelonae) was greater than 100 mg/L.

Molecule `C=C(C)C1CC=C(C)/C(=N/NC(=O)c2ccccc2Nc2cccc(C(F)(F)F)c2)C1` (stereo not drawn) has an MIC (Mycobacterium xenopi) greater than 100 mg/L, an MIC [1] greater than 100 mg/L and an MIC [2] greater than 100 mg/L. The MIC (Mycobacteroides chelonae) was greater than 100 mg/L.

`C=C(C)C1CC=C(C)/C(=N\NC(=O)c2cn(CC)c3nc(C)ccc3c2=O)C1` (stereo not drawn) showed an MIC (Mycobacterium xenopi) greater than 100 mg/L, an MIC [1] greater than 100 mg/L and an MIC [2] greater than 100 mg/L. The MIC (Mycobacteroides chelonae) was greater than 100 mg/L.
